Results as given in patent publication US20180141987A1, “Novel Synthetic Antimicrobial Peptides” (priority 2014, published 2018).
Values after ≈ are worked out from the molar mass of the structure shown. Where two headings read alike, the source gives them in different places. No end group written: not given here.

Experiments:
Aspergillus niger = system: Aspergillus niger
Description: (§1) iii. In Vitro Antifungal Assays • In vitro antifungal assays were performed in RPMI-1640 medium by broth micro dilution according to the Clinical and Laboratory Standards Institute (CLSI, formerly NCCL) methods M27-A3 and M-38-A2. […] Amphotericin B was used as positive control.

Candida albicans = system: Candida albicans
Description: as §1

Cryptococcus = system: Cryptococcus
Description: as §1

Fusarium oxysoprum = system: Fusarium oxysoprum
Description: as §1

Neurospora crassa = system: Neurospora crassa
Description: as §1

Ustilago maydis = system: Ustilago maydis
Description: as §1

Staphylococcus aureus = test: microbe, parasite or virus in culture; assay type: cell-based
Pseudomonas aeruginosa = test: microbe, parasite or virus in culture; assay type: cell-based
Escherichia coli = test: microbe, parasite or virus in culture; assay type: cell-based
Salmonella enterica = test: Inhibitory activity against bacteria (MIC 90); assay type: cell-based
Candida albicans cells [1] = test: Membrane damage (propidium iodide fluorescence); assay type: cell-based; conditions: peptides at their respective MICs, FIG. 6
Description: (§2) FIG. 6 depicts the membrane damage and reactive oxygen species (ROS) generation by the instant peptides (a) Untreated Control, (b) positive control (c) […] (known peptide sequence, not novel, not to be covered in the invention, was used only for comparison), (d)Seq IDNo. 2, (e) Seq IDNo. 3 and (f) Seq IDNo. 1, after incubation of peptides at their respective MICs with the Candida albicans cells. i. Membrane Damage and ROS Generation • The membrane damage and formation of ROS (Reactive oxygen species) are the antifungal mechanisms of a number of antimicrobial peptides. The membrane damage (middle panel) and ROS generation by the instant peptides (right panel) was monitored after incubation of peptides at their respective MICs with the Candida albicans cells as depicted in FIG. 6(a-f). A red fluorescence resulting from the membrane impermeable DNA binding dye propidium iodide was observed indicating the membrane damage in the cells due to action of peptides under study. A green fluorescence resulting from the oxidation of dye Dichloro-dihydro-fluorescein diacetate DCFH-DA (non-fluorescent molecule) into DCF 2',7'-dichlorofluorescein. (fluorescent molecule) was observed indicating the presence of ROS.

Candida albicans cells [2] = test: ROS generation (DCFH-DA fluorescence); assay type: cell-based; conditions: peptides at their respective MICs, FIG. 6
Description: as §2

Yeast-Hypha transition = Yeast-Hypha transition inhibition; assay type: cell-based; conditions: at 4 μg/ml; Table 10 has no title
Description: ii. Yeast-Hypha Transition Inhibition. • The peptides were also tested for the Yeast-Hypha transition inhibition. In many human and plant pathogenic fungi direct correlation between the ability of fungus to switch between yeast (Y) and hypha (H) forms and pathogenicity have been reported (Jacobsen et al., 2012; Thompson et al., 2011; Nadal et al., 2008).

[3] = system: human and plant pathogens; test: In vitro antifungal assays, all cultures tested; assay type: cell-based; conditions: human and plant pathogenic fungi
Description: as §1

human erythrocyte = test: Hemolytic activity, release of haemoglobin from erythrocyte suspensions in PBS; assay type: cell-based; conditions: human erythrocytes
Description: The toxicity of the present cationic, alpha-helical antimicrobial peptides on blood cells to determine their suitability for systemic application was performed. Lysis of erythrocyte membranes was determined by monitoring the release of haemoglobin from human erythrocyte suspensions in PBS, in relation to complete (100%) haemolysis. Table 13(a) provides the % hemolytic activity observed when a series of concentrations of the present peptides were brought in contact with erythrocytes. There was absence of any hemolytic activity upto concentrations in the range of 130 to 200 μg/mL. However at concentration above 250 μg/mL, a minimal level of hemolysis was observed.

MTT assay, cytotoxicity = assay type: cell-based, human; conditions: human, HeLa cells, concentration not given
Description: (§3) The cytolytic acivity of the present peptides was assessed by the MTT (3-(4,5-dimethylthiazol-2-yl)-2,5-diphenyltetrazolium bromide) assay against human cell lines (Hela cells). The cytotoxicity of on HeLa cells was assessed Approximately 10^4 cells per well were seeded in a 96-well plate and incubated for 12-16 h at 37° C.

Hela cells = test: MTT assay, cytotoxicity; assay type: cell-based, human; conditions: concentration not given
Description: as §3

[4] = system: Gram positive and Gram negative bacteria; test: Inhibitory activity against bacteria, all cultures; assay type: cell-based

Compound	Y-H transition inhibition (Yeast-Hypha transition) [%]	MIC 90 (Aspergillus niger) [µg/mL]	MIC 90 (Candida albicans) [µg/mL]	MIC 90 (Cryptococcus) [µg/mL]	MIC 90 (Fusarium oxysoprum) [µg/mL]	MIC 90 (Neurospora crassa) [µg/mL]	MIC 90 (Ustilago maydis) [µg/mL]	Antifungal potency in words, all the cultures tested [3]	MIC 90 (Staphylococcus aureus) [µg/mL]	MIC 90 (Pseudomonas aeruginosa) [µg/mL]	MIC 90 (Escherichia coli) [µg/mL]	MIC 90 (Salmonella enterica) [µg/mL]	Hemolytic activity (human erythrocyte; 256 μg/mL) [%]	Hemolytic activity (human erythrocyte; 512 μg/mL)	Hemolytic activity (human erythrocyte; 1024 μg/mL) [%]	viability (MTT assay, cytotoxicity) [%]	O.D. (Treated Cells) (Hela cells)	further results
C[C@@H]1[C@H](O)[C@@H](C)/C=C/C=C/C=C/C=C/C=C/C=C/C=C/[C@H](O[C@@H]2O[C@H](C)[C@@H](O)[C@H](N)[C@@H]2O)C[C@@H]2O[C@](O)(C[C@@H](O)C[C@@H](O)[C@H](O)CC[C@@H](O)C[C@@H](O)CC(=O)O[C@H]1C)C[C@H](O)[C@H]2C(=O)O [Ampho B, Amphotericin B, reference compound]	–	–	–	–	–	–	–	–	–	–	–	–	–	–	–	–	–	MIC 90 (Aspergillus niger; Aspergillus niger, RPMI-1640): 8 µg/mL (≈ 8.66 µM); MIC 90 (Candida albicans; Candida albicans, RPMI-1640): 4 µg/mL (≈ 4.33 µM); MIC 90 (Cryptococcus; Cryptococcus, RPMI-1640): 4 µg/mL (≈ 4.33 µM); MIC 90 (Fusarium oxysoprum; Fusarium oxysoprum, RPMI-1640): 8 µg/mL (≈ 8.66 µM); MIC 90 (Neurospora crassa; Neurospora crassa, RPMI-1640): 4 µg/mL (≈ 4.33 µM); MIC 90 (Ustilago maydis; Ustilago maydis, RPMI-1640): 4 µg/mL (≈ 4.33 µM)
CC1(C)S[C@@H]2[C@H](NC(=O)[C@H](N)c3ccccc3)C(=O)N2[C@H]1C(=O)O [Ampicillin, ampicillin, reference compound]	–	–	–	–	–	–	–	–	–	–	–	–	–	–	–	–	–	MIC 90 (Staphylococcus aureus; Staphylococcus aureus, read-out: MIC 90): 2 µg/mL (≈ 5.72 µM); MIC 90 (Pseudomonas aeruginosa; Pseudomonas aeruginosa, read-out: MIC 90): 2 µg/mL (≈ 5.72 µM); MIC 90 (Escherichia coli; Escherichia coli, read-out: MIC 90): 4 µg/mL (≈ 11.4 µM); MIC 90 (Salmonella enterica; read-out: MIC 90): 4 µg/mL (≈ 11.4 µM)
FKLRAKIKVRLRAKIKL [D4E1, reference compound]	95.2	16	8	4	16	8	32	most potent	2	2	2	–	–	–	–	–	–	Relative potency in membrane damage and ROS generation (Candida albicans cells [1]): more potent; ROS generation (Candida albicans cells [2]): higher
FRLKFHLKF-NH2 [Seq Id No: 2]	–	16	8	4	8	8	16	–	2	2	2	2	2	3.2%^	7	100	1.0185	–
VLKKLKKLC-NH2 [Seq Id No: 3]	87.5	16	64	16	32	16	32	moderate activity	4	4	2	2	2	2.9%	5.7	88	0.8325	Potency towards Gram positive versus Gram negative bacteria [4]: higher potency towards Gram positive
